{"source": "paper PMC11455950", "about": "“Effects of SZV-2649, a new multiple ion channel inhibitor mexiletine analogue” (Scientific Reports, 2024)", "key": {"[1]": {"tested_on": "dog right ventricular muscle preparations", "assay": "Conventional microelectrode action potential recording, dog ventricular muscle", "conditions": "for APA / APD50 / APD90 / RP / Vmax: ventricular muscle, CL = 1000 ms, n = 8", "description": "(§1) The effects of SZV-2649 on action potentials were studied in dog ventricular, atrial and Purkinje fiber preparations.\nThe Class I antiarrhythmic property of SZV-2649 was further studied with different frequency-dependent protocols. […]. Action potentials were recorded in cardiac ventricular trabeculae and papillary muscle preparations obtained from the right ventricles of Beagle dogs (10–15 kg) of either sex using the conventional microelectrode technique. Dogs were sacrificed by iv. sedation with xylazine (1 mg/kg), followed by i.v. administration of 50 mg/kg pentobarbital. After the cornea reflex disapeared the chest was opened, and the heart was rapidly removed. The heart was immediately rinsed in oxygenated modified Locke’s solution containing (in mM): NaCl 128.3, KCl 4, CaCl2 1.8, MgCl2 0.42, NaHCO3 21.4, and glucose 10. The pH of this solution was set between 7.35 and 7.4 when gassed with the mixture of 95% O2 and 5% CO2 at 37 °C.\n(§2) Isolated papillary muscle or atrial trabecula and Purkinje fiber preparations were obtained and prepared from the right ventricle and were individually mounted in a tissue chamber with the volume of 50 ml. Each preparation was initially stimulated through a pair of platinum electrodes in contact with the preparation using rectangular current pulses of 2 ms duration. These stimuli were delivered at a constant cycle length of 1000 ms for at least 60 min allowing the preparation to equilibrate before the measurements were initiated. Transmembrane potentials were recorded using conventional glass microelectrodes, filled with 3 M KCl and having tip resistances of 5–20 MΩ, connected to the input of a high impedance electrometer (Experimetria, type 309, Budapest, Hungary) which was coupled to a dual beam oscilloscope. […] Stimulation with a constant cycle length of 1000 ms was applied in the course of all experiments. Attempts were made to maintain the same impalement throughout each experiment. In case an impalement became dislodged, adjustment was attempted, and if the action potential characteristics of the re-established impalement deviated by less than 5% from the previous measurement, the experiment continued[64]–[67]. All measurements were carried out at 37 °C."}, "dog atrial muscle": {"tested_on": "dog atrial muscle", "assay": "Conventional microelectrode action potential recording, dog atrial muscle", "conditions": "for APA / APD50 / APD90 / RP / Vmax: atrial muscle, CL = 1000 ms, n = 11", "description": "as §1\nAction potentials were recorded in cardiac ventricular trabeculae and papillary muscle preparations obtained from the right ventricles of Beagle dogs (10–15 kg) of either sex using the conventional microelectrode technique. Dogs were sacrificed by iv. sedation with xylazine (1 mg/kg), followed by i.v. administration of 50 mg/kg pentobarbital. After the cornea reflex disapeared the chest was opened, and the heart was rapidly removed. The heart was immediately rinsed in oxygenated modified Locke’s solution containing (in mM): NaCl 128.3, KCl 4, CaCl2 1.8, MgCl2 0.42, NaHCO3 21.4, and glucose 10. The pH of this solution was set between 7.35 and 7.4 when gassed with the mixture of 95% O2 and 5% CO2 at 37 °C.\nas §2"}, "[2]": {"tested_on": "IKACh in dog atrial trabecular muscle preparations", "assay": "Action potential duration in carbachol-pretreated dog atrial trabecular muscle", "conditions": "10 µM, after 1 µM carbachol for 10 min", "description": "The possible effect of SZV-2649 on IKACh was investigated in dog atrial trabecular muscle preparations. Carbachol (1 µM) was added to the tissue bath for 10 min to activate IKACh. […] Application of 10 µM SZV-2649 prolonged APD substantially to a greater degree (100%) than could be expected by its effect on repolarization in the absence of carbachol (10%) as shown in Table 1; Fig. 5D.\nAction potentials were recorded in cardiac ventricular trabeculae and papillary muscle preparations obtained from the right ventricles of Beagle dogs (10–15 kg) of either sex using the conventional microelectrode technique. Dogs were sacrificed by iv. sedation with xylazine (1 mg/kg), followed by i.v. administration of 50 mg/kg pentobarbital. After the cornea reflex disapeared the chest was opened, and the heart was rapidly removed. […]\nIsolated papillary muscle or atrial trabecula and Purkinje fiber preparations were obtained and prepared from the right ventricle and were individually mounted in a tissue chamber with the volume of 50 ml. […] Transmembrane potentials were recorded using conventional glass microelectrodes, filled with 3 M KCl and having tip resistances of 5–20 MΩ, connected to the input of a high impedance electrometer (Experimetria, type 309, Budapest, Hungary) which was coupled to a dual beam oscilloscope. […]"}, "conscious dogs": {"tested_on": "conscious dogs", "assay": "Basic ECG parameters in conscious dogs", "type": "in vivo, dog", "description": "The effects of SZV-2649 on the basic ECG parameters in conscious dogs were investigated. […] Beagle dogs of either sex weighing 12–14 kg were used for the experiments. ECG measurements were taken in conscious animals using the standard I-III leads. QTc was calculated using the Van de Water’s formula[61]. SZV-2649 (10 mg/kg) was applied by i.v. or oral administration."}, "anesthetized rats": {"tested_on": "anesthetized rats", "assay": "Coronary artery occlusion/reperfusion-induced ventricular arrhythmias in anesthetized rats", "type": "in vivo, rat", "text": "The effects of SZV-2649 were further studied in the acute ischemia-induced ventricular arrhythmia model in anasthetized rats. Mexiletine and dofetilide were used as reference compounds for comparison.\nThe surgical procedure was based on a modified method described in detail in Gömöri et al. (2020)[62]. Pentobarbital-anesthetized male Wistar-Hannover rats were mechanically ventilated and subjected to thoracic surgery to perform a 6-min coronary artery occlusion and 5-min of reperfusion for the development of ischemia-induced ventricular arrhythmias (see Fig. 6A). The right jugular vein was cannulated for the administration of SZV-2649, vehicle, mexiletine or dofetilide, and the right carotid artery was used to measure blood pressure. The three-lead electrocardiogram and body temperature were continuously registered. Ten to twelve rats per group were administered vehicle (dimethyl sulfoxide, 200 µL/kg) or the studied drugs (see above), 2 min before the onset of ischemia as a slow i.v. bolus injection through the right jugular vein. At the end of 5-min reperfusion, hearts were isolated, mounted onto a Langendorff perfusion system, and after re-occluding the coronary artery, were perfused with 5-mL of 70% ethanol via the ascending aorta to delineate the ischemic risk zone. Then the left ventricles were cut along the demarcation lines of denatured area, and the sections were weighed to determine the area of risk to normalize the extent of the ischaemic insult. We evaluated the occurrence of ventricular arrhythmias based on the recommendations of the modified Lambeth Conventions published previously by Curtis et al. (2013)[63]."}, "[3]": {"conditions": "intravenous 10 mg/kg, 30 min after administration, n = 6"}, "[4]": {"conditions": "per os 10 mg/kg, 1 h after administration, n = 7"}}}
{"molecule": "CC(N)COc1c(I)cc(C#N)cc1I.Cl", "note": "(centres unmarked) [SZV-2649, 4-(2-aminopropoxy)-3,5-diiodobenzonitrile hydrochloride]", "values": [{"measurement": "APA", "setting": "[1]; 5 µM", "value": "118.3 ± 1.9", "unit": "mV"}, {"measurement": "APD50", "setting": "[1]; 5 µM", "value": "212.2 ± 5.7", "unit": "ms"}, {"measurement": "APD90", "setting": "[1]; 5 µM", "value": "251.6 ± 4.0", "unit": "ms"}, {"measurement": "RP", "setting": "[1]; 5 µM", "value": "−84.5 ± 2.0", "unit": "mV"}, {"measurement": "Vmax", "setting": "[1]; 5 µM", "value": "227.4 ± 24.2", "unit": "V/s"}, {"measurement": "Recovery time constant of Vmax (offset kinetics of Vmax block, τoffset)", "setting": "[1]; 10 µM, dog ventricular muscle, premature stimulation from 1 Hz basic frequency", "value": 590, "unit": "ms"}, {"measurement": "APA", "setting": "[1]; 10 µM", "value": "117.1 ± 2.1", "unit": "mV"}, {"measurement": "APD50", "setting": "[1]; 10 µM", "value": "213.4 ± 5.8", "unit": "ms"}, {"measurement": "APD90", "setting": "[1]; 10 µM", "value": "252.8 ± 5.0", "unit": "ms"}, {"measurement": "RP", "setting": "[1]; 10 µM", "value": "−86.1 ± 2.0", "unit": "mV"}, {"measurement": "Vmax", "setting": "[1]; 10 µM", "value": "203.2 ± 24.3", "unit": "V/s"}, {"measurement": "Vmax", "setting": "[1]; […]", "value": "228.3 ± 23.5", "unit": "V/s"}, {"measurement": "APA", "setting": "dog atrial muscle; 5 µM", "value": "108.8 ± 1.9", "unit": "mV"}, {"measurement": "APD50", "setting": "dog atrial muscle; 5 µM", "value": "73.3 ± 6.2", "unit": "ms"}, {"measurement": "APD90", "setting": "dog atrial muscle; 5 µM", "value": "168.9 ± 8.8", "unit": "ms"}, {"measurement": "RP", "setting": "dog atrial muscle; 5 µM", "value": "−88.2 ± 1.8", "unit": "mV"}, {"measurement": "Vmax", "setting": "dog atrial muscle; 5 µM", "value": "195.3 ± 22.0", "unit": "V/s"}, {"measurement": "APA", "setting": "dog atrial muscle; 10 µM", "value": "102.6 ± 3.2", "unit": "mV"}, {"measurement": "APD50", "setting": "dog atrial muscle; 10 µM", "value": "70.1 ± 6.2", "unit": "ms"}, {"measurement": "APD90", "setting": "dog atrial muscle; 10 µM", "value": "176.8 ± 8.5", "unit": "ms"}, {"measurement": "RP", "setting": "dog atrial muscle; 10 µM", "value": "−85.1 ± 1.7", "unit": "mV"}, {"measurement": "Vmax", "setting": "dog atrial muscle; 10 µM", "value": "145.9 ± 12.1", "unit": "V/s"}, {"measurement": "Prolongation of repolarization (APD) in the absence of carbachol", "setting": "dog atrial muscle; 10 µM, dog atrial muscle", "value": 10, "unit": "%"}, {"measurement": "Prolongation of APD in the presence of carbachol", "setting": "[2]", "value": 100, "unit": "%"}, {"measurement": "PQ", "setting": "conscious dogs; [3]", "value": "150.6 ± 15.8", "unit": "ms"}, {"measurement": "QRS", "setting": "conscious dogs; [3]", "value": "52.2 ± 3.2", "unit": "ms"}, {"measurement": "QT", "setting": "conscious dogs; [3]", "value": "234.5 ± 5.6", "unit": "ms"}, {"measurement": "RR", "setting": "conscious dogs; [3]", "value": "756.1 ± 29.4", "unit": "ms"}, {"measurement": "QTC", "setting": "conscious dogs; intravenous 10 mg/kg, 30 min after administration, n = 6, Van de Water's formula", "value": "255.7 ± 6.3", "unit": "ms"}, {"measurement": "PQ", "setting": "conscious dogs; [4]", "value": "119.8 ± 7.5", "unit": "ms"}, {"measurement": "QRS", "setting": "conscious dogs; [4]", "value": "47.9 ± 2.4", "unit": "ms"}, {"measurement": "QT", "setting": "conscious dogs; [4]", "value": "215.0 ± 7.5", "unit": "ms"}, {"measurement": "RR", "setting": "conscious dogs; [4]", "value": "596.2 ± 44.0", "unit": "ms"}, {"measurement": "QTC", "setting": "conscious dogs; per os 10 mg/kg, 1 h after administration, n = 7, Van de Water's formula", "value": "250.1 ± 7.0", "unit": "ms"}, {"measurement": "Effect on incidence of ventricular arrhythmias", "setting": "anesthetized rats; 6 min coronary artery occlusion / 5 min reperfusion, i.v. 2 min before ischemia", "value": "markedly reduced"}, {"measurement": "Incidence of ventricular fibrillation (VF)", "setting": "anesthetized rats; during reperfusion, over 50% in control animals", "value": 0, "unit": "%"}, {"measurement": "Effect on heart rate", "setting": "anesthetized rats; i.v. administration, anesthetized rats", "value": "significantly decreased"}, {"measurement": "melting point", "value": "216 to 219", "unit": "°C"}]}
